In patent publication US8497245B2, “Trypsin-like serine protease inhibitors, their preparation and use as selective inhibitors of the clotting factors IIa and Xa” (The Medicines Company (Leipzig) GmbH, priority 2010, dated 2013) one finds Ki data, which are given here for twelve molecules.

Structures are written as SMILES. Where a name gives a salt, the structure may show the parent alone. Read-outs that look alike come from different tables or passages of the source.

What is called Ki is a measure of affinity in units of concentration, obtained from inhibition or displacement.

What all share (assay type): biochemical
In one assay the target is T1, human Factor Xa (Homo sapiens, UniProt P00742).
T1 construct: human Factor Xa from Enzyme Research Laboratories; purchased Enzyme Research Laboratories
T1 sequence (P00742 235-488 limits assumed): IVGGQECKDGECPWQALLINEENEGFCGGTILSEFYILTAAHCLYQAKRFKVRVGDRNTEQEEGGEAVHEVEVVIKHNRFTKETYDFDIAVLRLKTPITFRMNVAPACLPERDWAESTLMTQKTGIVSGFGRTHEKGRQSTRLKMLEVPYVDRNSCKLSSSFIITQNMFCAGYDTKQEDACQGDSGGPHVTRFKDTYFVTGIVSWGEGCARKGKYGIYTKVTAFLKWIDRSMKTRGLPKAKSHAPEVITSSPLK
T1 sequence (P00742 41-179 partner limits assumed): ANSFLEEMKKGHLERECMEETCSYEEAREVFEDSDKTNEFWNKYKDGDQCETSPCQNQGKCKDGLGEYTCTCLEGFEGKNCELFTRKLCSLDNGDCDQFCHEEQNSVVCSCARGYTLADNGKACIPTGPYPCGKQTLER
In words: Inhibition constants for human factor Xa, chromogenic substrate assay. Particulars: 25° C., Pefachrome FXa substrate, average of at least three determinations; read-out: Ki h FXa. How it is done:
(§1) The inhibitory effect against the individual purified enzymes was determined in analogy to a previously disclosed method (Stürzebecher et al., J. Med. Chem., 40, 3091-3099 (1997)).
(§2) 200 μL of TBS (0.05 M trishydroxymethylaminomethane; 0.154 M NaCl, 2% ethanol, pH 8.0)
(§3) The release of p-nitroaniline (p-NA, the chromogenic product of the proteolytic activity), was determined by change in absorbance at 405 nm. The equilibrium rates were used to calculate the inhibitor/enzyme dissociation constant (Ki values) by parameter fitting in accordance with the rate equation for competitive inhibition using GraFit (version 4 from Erithacus). The results are reported as Ki values (nanomolar) in table 7 and are the average of at least three determinations.

In assay [1] the target is T2, Human urokinase type plasminogen activator (h u-PA) (Homo sapiens, UniProt P00749).
T2 construct: purchased MEDAC GmbH Urokinase HS medac
In words: Inhibition of human urokinase type plasminogen activator (reference enzyme). Conditions: H-Glu-Gly-Arg-pNA substrate. How it is done:
as §1, §3
(§4) Dissociation constants were calculated as described herein.

The target of assay [2] is T3, Subcomponent "s" of Human Complement Component 1 (h C1s) (Homo sapiens, UniProt P09871).
T3 construct: purchased Calbiochem
T3 sequence (P09871 438-688 limits assumed): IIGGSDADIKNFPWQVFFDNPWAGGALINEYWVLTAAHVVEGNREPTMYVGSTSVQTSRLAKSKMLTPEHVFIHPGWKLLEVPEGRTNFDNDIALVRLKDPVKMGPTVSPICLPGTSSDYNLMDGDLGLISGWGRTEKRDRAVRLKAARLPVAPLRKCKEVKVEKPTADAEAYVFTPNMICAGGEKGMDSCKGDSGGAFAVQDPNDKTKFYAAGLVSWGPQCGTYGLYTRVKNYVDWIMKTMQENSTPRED
T3 sequence (P09871 16-437 partner limits assumed): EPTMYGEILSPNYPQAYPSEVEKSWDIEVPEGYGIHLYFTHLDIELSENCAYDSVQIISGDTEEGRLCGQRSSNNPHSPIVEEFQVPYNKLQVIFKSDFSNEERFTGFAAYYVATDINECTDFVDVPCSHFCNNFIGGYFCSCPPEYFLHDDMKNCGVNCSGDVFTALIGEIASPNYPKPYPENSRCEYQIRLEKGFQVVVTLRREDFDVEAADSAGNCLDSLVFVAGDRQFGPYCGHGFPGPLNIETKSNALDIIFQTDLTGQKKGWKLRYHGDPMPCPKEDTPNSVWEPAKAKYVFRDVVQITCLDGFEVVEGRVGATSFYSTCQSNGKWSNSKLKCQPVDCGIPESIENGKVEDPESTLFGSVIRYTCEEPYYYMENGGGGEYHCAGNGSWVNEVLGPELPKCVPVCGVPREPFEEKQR
In words: Inhibition of human C1s (reference enzyme). Conditions: S-2314 substrate; read-out: Ki h Cls. As for the experimental part:
as §1, §3, §4

Assay [3] has as its target T4, Human urinary kallikrein (h uKK) (Homo sapiens, UniProt P06870).
T4 construct: purchased Lee Biosolutions
As to the kind of experiment: Inhibition of human urinary kallikrein (reference enzyme). Particulars: S-2266 substrate. As for the experimental part:
as §1, §3, §4

The target of assay [4] is T5, human factor IIa (human alpha-thrombin) (Homo sapiens, UniProt P00734).
T5 construct: human alpha-thrombin from Enzyme Research Laboratories; purchased Enzyme Research Laboratories
As to the kind of experiment: Inhibition constants for human factor IIa, chromogenic substrate assay. Conditions: 25° C., Pefachrome tPA substrate, average of at least three determinations; read-out: Ki h FIIa. As for the experimental part: as §1, §2, §3

Assay [5] concerns the target T6, Human plasmin (h plasmin) (Homo sapiens, UniProt P00747).
T6 construct: purchased Calbiochem
As to the kind of experiment: Inhibition of human plasmin (reference enzyme). Particulars: Chromozym PL substrate. As for the experimental part: as §1, §3, §4

Assay [6] addresses T7, Human plasma kallikrein (h PK) (Homo sapiens, UniProt P03952).
T7 construct: purchased Enzyme Research Laboratories
As to the kind of experiment: Inhibition of human plasma kallikrein (reference enzyme). Conditions: S2302 substrate. As for the experimental part:
as §1, §3, §4

Assay [7] deals with T8, Subcomponent "r" of Human Complement Component 1 (h C1r) (Homo sapiens, UniProt P00736).
T8 construct: purchased Calbiochem
T8 sequence (P00736 464-705 limits assumed): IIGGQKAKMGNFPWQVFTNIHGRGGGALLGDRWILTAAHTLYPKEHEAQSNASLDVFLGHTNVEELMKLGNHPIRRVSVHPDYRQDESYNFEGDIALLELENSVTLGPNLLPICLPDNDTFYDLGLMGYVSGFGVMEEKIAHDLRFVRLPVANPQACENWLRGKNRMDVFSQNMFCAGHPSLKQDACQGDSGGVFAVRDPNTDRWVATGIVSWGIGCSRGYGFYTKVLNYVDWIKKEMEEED
T8 sequence (P00736 18-463 partner limits assumed): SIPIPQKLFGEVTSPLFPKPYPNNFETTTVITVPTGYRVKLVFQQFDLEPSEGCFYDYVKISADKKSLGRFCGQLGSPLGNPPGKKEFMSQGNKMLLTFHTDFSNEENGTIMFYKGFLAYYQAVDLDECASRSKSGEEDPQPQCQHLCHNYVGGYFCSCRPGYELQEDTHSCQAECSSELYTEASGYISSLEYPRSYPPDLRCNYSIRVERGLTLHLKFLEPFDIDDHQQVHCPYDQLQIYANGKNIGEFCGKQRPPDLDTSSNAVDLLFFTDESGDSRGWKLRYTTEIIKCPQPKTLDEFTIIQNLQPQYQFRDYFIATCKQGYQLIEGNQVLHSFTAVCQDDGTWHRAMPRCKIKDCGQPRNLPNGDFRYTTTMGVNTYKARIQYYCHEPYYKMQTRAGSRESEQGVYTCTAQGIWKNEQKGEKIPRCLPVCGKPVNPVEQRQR
In words: Inhibition of human C1r (reference enzyme). Particulars: S-2314 substrate; read-out: Ki h Clr. How it is done: as §1, §3, §4

The target of assay [8] is T9, Human Activated Protein C (h aPC) (Homo sapiens, UniProt P04070).
T9 construct: purchased Enzyme Research Laboratories
T9 sequence (P04070 212-450 limits assumed): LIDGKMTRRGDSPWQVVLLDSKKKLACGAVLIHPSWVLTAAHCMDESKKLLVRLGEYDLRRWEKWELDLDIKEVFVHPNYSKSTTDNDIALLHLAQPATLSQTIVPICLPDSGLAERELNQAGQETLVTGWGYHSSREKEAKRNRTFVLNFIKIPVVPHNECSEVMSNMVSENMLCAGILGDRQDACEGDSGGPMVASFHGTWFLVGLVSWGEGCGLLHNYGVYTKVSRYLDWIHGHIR
T9 sequence (P04070 43-197 partner limits assumed): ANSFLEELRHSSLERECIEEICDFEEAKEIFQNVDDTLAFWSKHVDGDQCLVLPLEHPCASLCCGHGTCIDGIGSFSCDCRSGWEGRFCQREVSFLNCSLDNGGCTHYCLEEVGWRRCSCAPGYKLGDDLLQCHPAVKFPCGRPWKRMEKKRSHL
In words: Inhibition of human activated protein C (reference enzyme). Particulars: Pefachrome PCa substrate. How it is done: as §1, §3, §4

Assay [9] deals with T10, Human tissue-type plasminogen activator (h t-PA) (Homo sapiens, UniProt P00750).
T10 construct: purchased Boehringer Ingelheim Actilyse
T10 sequence (P00750 36-562): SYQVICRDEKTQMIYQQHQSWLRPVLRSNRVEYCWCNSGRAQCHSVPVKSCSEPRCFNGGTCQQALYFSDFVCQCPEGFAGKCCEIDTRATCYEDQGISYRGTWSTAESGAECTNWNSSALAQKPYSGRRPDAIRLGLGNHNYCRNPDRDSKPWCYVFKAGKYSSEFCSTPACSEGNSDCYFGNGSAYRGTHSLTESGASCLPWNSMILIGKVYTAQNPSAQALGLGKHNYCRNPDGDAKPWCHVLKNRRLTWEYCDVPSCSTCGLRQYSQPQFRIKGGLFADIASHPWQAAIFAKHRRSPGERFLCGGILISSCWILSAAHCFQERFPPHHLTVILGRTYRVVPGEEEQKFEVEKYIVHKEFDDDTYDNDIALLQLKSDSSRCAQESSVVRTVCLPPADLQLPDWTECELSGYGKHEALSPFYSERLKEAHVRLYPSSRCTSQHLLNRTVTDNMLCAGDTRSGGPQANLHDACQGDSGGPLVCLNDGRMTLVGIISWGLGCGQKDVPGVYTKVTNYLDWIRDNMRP
In words: Inhibition of human tissue-type plasminogen activator (reference enzyme). As for the experimental part:
The equilibrium rates were used to calculate the inhibitor/enzyme dissociation constant (Ki values) by parameter fitting in accordance with the rate equation for competitive inhibition using GraFit (version 4 from Erithacus).
as §4

Where [10] appears, read: Pefachrome tPA substrate, read-out: Ki h t-PA.

T7 sequence (P03952 391-638 limits assumed): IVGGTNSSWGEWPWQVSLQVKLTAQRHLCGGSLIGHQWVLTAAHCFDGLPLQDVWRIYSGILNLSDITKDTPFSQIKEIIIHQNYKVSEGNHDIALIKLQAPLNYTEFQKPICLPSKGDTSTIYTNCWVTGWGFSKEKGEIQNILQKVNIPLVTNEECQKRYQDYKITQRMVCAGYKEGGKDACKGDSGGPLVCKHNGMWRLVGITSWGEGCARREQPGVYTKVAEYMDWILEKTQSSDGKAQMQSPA
T7 sequence (P03952 20-390 partner limits assumed): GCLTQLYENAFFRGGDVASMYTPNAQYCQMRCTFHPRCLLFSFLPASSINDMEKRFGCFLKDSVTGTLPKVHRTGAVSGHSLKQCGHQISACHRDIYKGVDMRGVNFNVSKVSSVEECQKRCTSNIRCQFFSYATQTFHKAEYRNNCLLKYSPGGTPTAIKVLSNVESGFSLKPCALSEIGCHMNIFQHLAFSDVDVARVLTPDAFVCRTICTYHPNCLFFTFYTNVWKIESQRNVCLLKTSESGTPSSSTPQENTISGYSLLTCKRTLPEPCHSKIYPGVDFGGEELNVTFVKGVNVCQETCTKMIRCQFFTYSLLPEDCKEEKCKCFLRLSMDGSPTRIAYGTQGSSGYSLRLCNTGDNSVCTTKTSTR
T4 sequence (P06870 25-262): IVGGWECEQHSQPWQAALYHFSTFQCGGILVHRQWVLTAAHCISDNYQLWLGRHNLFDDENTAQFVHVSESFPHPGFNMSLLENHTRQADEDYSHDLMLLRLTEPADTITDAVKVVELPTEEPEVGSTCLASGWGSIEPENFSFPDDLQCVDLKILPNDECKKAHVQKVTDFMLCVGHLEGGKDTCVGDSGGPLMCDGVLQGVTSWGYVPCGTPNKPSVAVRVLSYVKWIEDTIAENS
T6 sequence (P00747 581-810 limits assumed): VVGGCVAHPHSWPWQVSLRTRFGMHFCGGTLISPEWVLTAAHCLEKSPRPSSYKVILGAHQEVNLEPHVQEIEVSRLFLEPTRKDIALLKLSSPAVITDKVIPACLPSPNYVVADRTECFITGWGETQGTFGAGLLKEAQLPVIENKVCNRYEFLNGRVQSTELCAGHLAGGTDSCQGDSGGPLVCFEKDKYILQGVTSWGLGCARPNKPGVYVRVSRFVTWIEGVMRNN
T6 sequence (P00747 97-580 partner limits assumed): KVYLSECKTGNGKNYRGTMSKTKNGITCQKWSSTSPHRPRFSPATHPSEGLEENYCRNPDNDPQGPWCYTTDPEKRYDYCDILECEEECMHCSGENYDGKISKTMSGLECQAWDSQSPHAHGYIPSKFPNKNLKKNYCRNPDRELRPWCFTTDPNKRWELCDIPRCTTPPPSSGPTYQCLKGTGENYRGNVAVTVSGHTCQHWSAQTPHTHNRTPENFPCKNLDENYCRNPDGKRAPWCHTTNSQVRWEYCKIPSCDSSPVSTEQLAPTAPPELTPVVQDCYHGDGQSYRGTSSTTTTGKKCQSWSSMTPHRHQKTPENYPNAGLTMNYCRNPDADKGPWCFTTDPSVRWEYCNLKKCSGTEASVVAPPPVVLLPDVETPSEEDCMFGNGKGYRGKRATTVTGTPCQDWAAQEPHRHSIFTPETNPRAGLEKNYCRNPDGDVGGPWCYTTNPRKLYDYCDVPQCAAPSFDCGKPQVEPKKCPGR

As for `NCc1ccc(Cl)cc1CNC(=O)[C@@H]1CCCN1C(=O)[C@@H](CCC(=O)N1CCOCC1)NS(=O)(=O)Cc1ccccc1` [Compound 2.1, Bzls-D-Glu(morpholino)-L-Pro-Amb(2-AMe-5-Cl)×1 TFA], the Ki at human Factor Xa was 0.0011 µM; in assay [1] it was more than 40 µM; in [2], more than 80 µM; in assay [3], more than 60 µM; in assay [4] it was 0.00043 µM; in assay [5], more than 28 µM. The Ki was 1.86 µM in [6], more than 200 µM in [7], more than 100 µM in assay [8] and more than 20 µM in [9] (setting [10]).
For the molecule `CC(=O)N1CCC(N(C)C(=O)C[C@@H](NS(=O)(=O)Cc2ccccc2)C(=O)N2CCC[C@H]2C(=O)NCc2cc(Cl)ccc2CN)CC1` [Compound 2.2], the Ki on human Factor Xa is 0.023 µM; in assay [1] it was more than 50 µM; in assay [2], more than 100 µM; in assay [3], more than 10 µM; in [4] it was 0.0031 µM; in assay [5], more than 10 µM. Also, the Ki in assay [6] was 4.46 µM; in [7] it was more than 50 µM; in [8], more than 90 µM; in assay [9] (setting [10]) it was more than 100 µM.
Consider `CN(C(=O)C[C@@H](NS(=O)(=O)Cc1ccccc1)C(=O)N1CCC[C@H]1C(=O)NCc1cc(Cl)ccc1CN)C1CCNCC1` [Compound 2.3], for which the Ki on human Factor Xa is 0.023 µM; in [1] it was more than 100 µM; in [2], more than 20 µM; in [3], more than 50 µM; in assay [4] it was 0.003 µM; in [5], more than 100 µM. In addition, the Ki was 5.31 µM in [6], more than 100 µM in assay [7], more than 10 µM in assay [8] and more than 50 µM in assay [9].
Regarding `CN(C(=O)C[C@@H](NS(=O)(=O)Cc1ccccc1)C(=O)N1CCC[C@H]1C(=O)NCc1cc(Cl)ccc1CN)C1CCOCC1` [Compound 2.4], the Ki at human Factor Xa was 0.0013 µM; in assay [1], more than 40 µM; in assay [2], more than 25 µM; in assay [3], more than 50 µM; in assay [4] it was 0.00056 µM; in [5] it was more than 20 µM. The Ki is 0.262 µM in assay [6], more than 10 µM in assay [7], more than 10 µM in assay [8] and more than 100 µM in assay [9] (setting [10]).
Consider `CC(=O)N1CCC(N(C)C(=O)CC[C@@H](NS(=O)(=O)Cc2ccccc2)C(=O)N2CCC[C@H]2C(=O)NCc2cc(Cl)ccc2CN)CC1` [Compound 2.28], for which the inhibition constant (Ki) was 0.036 µM at human Factor Xa; more than 20 µM in assay [1]; more than 20 µM in [2]; more than 100 µM in [3]; 0.00057 µM in assay [4]; 5.56 µM in [5]. Besides, the figures for the Ki in assay [7], in [8] and in assay [9] (setting [10]) were more than 100 µM, more than 50 µM and more than 100 µM, respectively.
Regarding `NCc1ccc(Cl)cc1CNC(=O)[C@@H]1CCCN1C(=O)[C@@H](CCC(=O)O)NS(=O)(=O)Cc1ccccc1` [Compound 2.29], the inhibition constant (Ki) is 0.093 µM on human Factor Xa; more than 100 µM in [1]; more than 50 µM in [2]; 0.0033 µM in assay [4]; more than 15 µM in assay [5]; more than 20 µM in assay [6]. Further, the Ki in assay [7] was more than 10 µM; in assay [8], more than 25 µM; in assay [9] (setting [10]), more than 20 µM.
Regarding `NCc1ccc(Cl)cc1CNC(=O)[C@@H]1CCCN1C(=O)[C@@H](CC(=O)N1CCOCC1)NS(=O)(=O)Cc1ccccc1` [Compound 2.36], the Ki at human Factor Xa was 0.00038 µM; in [1], more than 40 µM; in assay [2] it was more than 100 µM; in assay [4], 0.00034 µM; in assay [5], more than 12 µM; in [6], 0.565 µM. The Ki in assay [7] was more than 30 µM; in assay [8] it was more than 100 µM; in assay [9] (setting [10]) it was 18 µM.
Turning to `NCc1ccc(Cl)cc1CNC(=O)[C@@H]1CCCN1C(=O)[C@@H](CC(=O)N1CCSCC1)NS(=O)(=O)Cc1ccccc1` [Compound 2.37], the inhibition constant (Ki) at human Factor Xa was 0.00054 µM; in [1] it was more than 20 µM; in assay [2], more than 80 µM; in [4], 0.00049 µM; in assay [5], 6 µM; in [6] it was 0.413 µM. Further, the values for the Ki in assay [7], in [8] and in [9] (setting [10]) were more than 200 µM, more than 40 µM and 19 µM, respectively.
Turning to `NCc1ccc(Cl)cc1CNC(=O)[C@@H]1CCCN1C(=O)[C@@H](CC(=O)N1CC[S+]([O-])CC1)NS(=O)(=O)Cc1ccccc1` [Compound 2.38], the Ki at human Factor Xa was 0.0055 µM; in assay [1], more than 60 µM; in assay [2], more than 80 µM; in [4] it was 0.0078 µM; in assay [6], 0.614 µM; in assay [7] it was more than 200 µM. The inhibition constant (Ki) in assay [8] was more than 50 µM; in assay [9] (setting [10]), more than 20 µM.
In the case of `NCc1ccc(Cl)cc1CNC(=O)[C@@H]1CCCN1C(=O)[C@@H](CC(=O)N1CCS(=O)(=O)CC1)NS(=O)(=O)Cc1ccccc1` [Compound 2.39], the Ki on human Factor Xa is 0.0154 µM; in assay [4], 0.0186 µM; in assay [8], more than 0.5 µM.
On to `CC(=O)N1CCN(C(=O)C[C@@H](NS(=O)(=O)Cc2ccccc2)C(=O)N2CCC[C@H]2C(=O)NCc2cc(Cl)ccc2CN)CC1` [Compound 2.40], for which the inhibitory constant (Ki) at human Factor Xa was 0.0024 µM; in assay [1], more than 50 µM; in [2], more than 80 µM; in assay [4] it was 0.0063 µM; in assay [5], 9 µM; in assay [6] it was 0.478 µM. Also, the Ki in assay [7] was more than 50 µM; in assay [8] it was more than 100 µM; in assay [9] (setting [10]), more than 20 µM.
On to `NCc1ccc(Cl)cc1CNC(=O)[C@@H]1CCCN1C(=O)[C@@H](CC(=O)Nc1cc[n+]([O-])cc1)NS(=O)(=O)Cc1ccccc1` [Compound 2.48, Bzls-D-Asp(1-oxido-4-amino-pyridine)-L-Pro-Amb(2-AMe-5-Cl)], for which the inhibitory constant (Ki) is 0.017 µM at human Factor Xa; more than 100 µM in [1]; more than 20 µM in [2]; more than 100 µM in assay [3]; 0.0025 µM in assay [4]; 0.8 µM in assay [6]. Moreover, the Ki in [7] is more than 100 µM; in [8], more than 10 µM; in [9] (setting [10]), 26.8 µM.
